Experiment [1] has as its target T1, Cruzipain (Trypanosoma cruzi, UniProt P25779). Nature of the experiment: Inhibition of recombinant Trypanosoma cruzi Cruzipain using Z-Phe-Arg-AMC as substrate preincubated for 5 mins followed by substrate addition by spectrofluorometry analysis.
Experiment [2] addresses Cruzipain (Trypanosoma cruzi) (UniProt P25779). Nature of the experiment: Inhibition of recombinant Trypanosoma cruzi Cruzipain using Z-FR-AMC as substrate at 125 to 1000 nM by fluorescence analysis. The following applies: dose 125-1000 nM.
Experiment [3] shares this target. Put plainly: Time dependent inhibition of recombinant Trypanosoma cruzi Cruzipain using Z-FR-AMC as substrate at 125 nM preincubated for 60 mins followed by substrate addition and measured for 45 to 60 mins by fluorescence analysis. The settings on record: time 105-120 min, TDE = time-dependent effect.
Experiment [4] has the same target. Put plainly: Reversible inhibition of recombinant Trypanosoma cruzi Cruzipain using Z-LR-AMC as substrate at 25 uM preincubated for 60 mins followed by substrate addition and measured for 45 to 60 mins by fluorescence analysis. The following applies: time 105-120 min.
Experiment [5] has the same target. Put plainly: Time dependent inhibition of recombinant Trypanosoma cruzi Cruzipain using Z-FR-AMC as substrate at 1000 nM preincubated for 60 mins followed by substrate addition and measured for 45 to 60 mins by fluorescence analysis. The settings on record: time 105-120 min, TDE = time-dependent effect.
Experiment [6] deals with T1, Cruzipain. Put plainly: Inhibition of recombinant Trypanosoma cruzi Cruzipain using Z-FR-AMC as substrate preincubated for 20 mins followed by substrate addition and measured for 45 mins by fluorescence analysis.
The target of experiment [7] is Cruzipain (Trypanosoma cruzi) (UniProt P25779). Put plainly: Reversible inhibition of recombinant Trypanosoma cruzi Cruzipain using Z-LR-AMC as substrate at 10 uM preincubated for 60 mins followed by substrate addition and measured for 45 to 60 mins by fluorescence analysis. The following applies: time 105-120 min.
Sequence of Cruzipain (Trypanosoma cruzi) (P25779 123-467 limits assumed): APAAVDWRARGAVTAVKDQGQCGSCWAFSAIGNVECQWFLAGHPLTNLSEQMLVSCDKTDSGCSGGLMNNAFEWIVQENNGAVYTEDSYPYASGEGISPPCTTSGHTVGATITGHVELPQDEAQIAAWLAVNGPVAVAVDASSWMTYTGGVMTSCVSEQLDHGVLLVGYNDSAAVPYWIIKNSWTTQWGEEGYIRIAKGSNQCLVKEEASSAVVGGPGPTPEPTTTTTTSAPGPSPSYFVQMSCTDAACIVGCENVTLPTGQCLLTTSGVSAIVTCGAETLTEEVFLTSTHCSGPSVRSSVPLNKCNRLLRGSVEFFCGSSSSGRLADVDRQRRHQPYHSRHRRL
For experiment [8] the target is unchanged. Put plainly: Reversible inhibition of recombinant Trypanosoma cruzi Cruzipain using Z-LR-AMC as substrate at 1 uM preincubated for 60 mins followed by substrate addition and measured for 45 to 60 mins by fluorescence analysis. The following applies: time 105-120 min.

Values joined by “and” are separate entries in the source; they are usually repeats but may differ in a detail not shown here. Equal entries are not always repeated. Active and inactive are the calls of the source. The rule behind the calls is not given here.

T1 sequence (P25779 whole entry): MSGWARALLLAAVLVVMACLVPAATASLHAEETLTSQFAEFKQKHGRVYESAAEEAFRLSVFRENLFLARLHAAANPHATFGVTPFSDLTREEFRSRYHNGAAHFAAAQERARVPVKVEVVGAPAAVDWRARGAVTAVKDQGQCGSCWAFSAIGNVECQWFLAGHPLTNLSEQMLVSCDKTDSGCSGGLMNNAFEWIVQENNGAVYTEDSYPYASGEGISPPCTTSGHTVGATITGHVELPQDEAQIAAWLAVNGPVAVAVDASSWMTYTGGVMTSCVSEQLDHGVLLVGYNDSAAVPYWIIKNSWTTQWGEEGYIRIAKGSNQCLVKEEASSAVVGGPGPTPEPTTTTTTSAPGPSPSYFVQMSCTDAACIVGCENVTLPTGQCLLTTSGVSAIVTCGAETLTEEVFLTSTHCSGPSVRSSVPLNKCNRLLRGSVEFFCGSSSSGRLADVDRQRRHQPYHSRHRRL

`CC/C(=N\N=C(\N)S)c1ccc(Cl)c(Cl)c1`: the IC50 at Cruzipain [1] is 24.5 nM.

For the compound `NC(=S)N/N=C(\CCn1ccnc1)c1ccc(Cl)c(Cl)c1`, the inhibition result in experiment [2] was “Dose-Dependent Effect”; in experiment [3], “Tde”; in experiment [5] it was “Tde”. The inhibition result in experiment [4] is “Active”.

On to `N/C(S)=N/N=C/c1cccc(Br)c1`, for which the IC50 on Cruzipain [6] (read-out: pIC50 (converted)) is 1360 nM.

`C/C(=N\N=C(\N)S)c1cccc(Br)c1`: the IC50 at Cruzipain [1] is 110 nM.

As for `NC(=S)N/N=C(\CCN1CCCCC1)c1ccc(Cl)c(Cl)c1`, the inhibition result in experiment [2] was “Dose-Dependent Effect”; in experiment [3], “Tde”; in experiment [5], “Tde”. The IC50 on Cruzipain [6] (read-out: IC50) is 2.86 nM and 8.54 nM. The inhibition result in experiment [7] was “Active”.

On to `NC(=S)N/N=C(\CCN1CCOCC1)c1ccc(Cl)c(Cl)c1`, for which the inhibition entry in experiment [2] was “Dose-Dependent Effect”; in experiment [3] it was “Tde”; in experiment [5], “Tde”. Besides, the inhibition result in experiment [8] is “Active”. Besides, the IC50 at Cruzipain [6] (read-out: IC50) was 3.34 nM and 8.48 nM.

(Values after ChEMBL document CHEMBL5325419, “Design, synthesis and biological evaluation of novel thiosemicarbazones as cruzipain inhibitors” (Eur J Med Chem, 2023).)
